Among the data in patent publication US20220184020A1, “Polyphenols as Modulators of Platelet Function” (Northeastern University, priority 2019, published 2022) are collagen-mediated platelet aggregation and total tyrosine phosphorylation values, retold here.

Test [1] has as its system platelets. The test is described as follows: Platelet aggregation by turbidimetric aggregometry. It is filed as cell-based, human. The note with it: PRP pre-treated with RA for 1 hour; collagen 1 μg/mL. How it is done: To validate the predictive power of the developed framework, direct experimental evidence of the predicted mechanistic role of Rosmarinic acid (RA) in VD was sought. […] Therefore, whether RA influenced platelet activation in vitro was evaluated. As platelets can be stimulated through different activation pathways, RA effects can, in principle, occur in any of them. To test these different possibilities, platelets were pretreated with RA and then activated with: 1) glycoprotein VI by collagen or collagen-related peptide (Collagen/CRPXL); 2) protease-activated receptors-1,4 by thrombin receptor activator peptide-6 (TRAP-6); 3) prostanoid thromboxane receptor by the thromboxane A2 analogue (U46619); and 4) P2Y1/12 receptor stimulation by adenosine diphosphate (ADP). […] Platelet aggregation was measured by turbidimetric aggregometry. […] Platelet aggregation was monitored for 6 minutes at 37° C. with a stir speed of 1000 rpm and the maximum extend of aggregation recorded using AGGRO/LINK®8 software. In some cases, dense granule release was simultaneously recorded by supplementing samples with Chrono-Lume® (Chrono-Log®, 395) according to the manufacturer's instructions.

Test [2] relates to washed platelets. The test is described as follows: Platelet total tyrosine phosphorylation (4G10 immunoblot). The note with it: in response to CRPXL, TRAP-6 and U46619; RA-treated platelets. It is filed as cell-based, human. The method, then: The molecular mechanisms involved in the functional impact of RA on platelets was clarified. The RA target FYN is a protein-tyrosine kinase and platelet activation is coordinated by several kinases that phosphorylate adaptors, enzymes, and cytoskeletal proteins downstream of platelet surface receptors. Given this connection, RA may inhibit platelets function by blocking agonist-induced protein tyrosine phosphorylation.
Human blood collection was performed as previously described in accordance with the Declaration of Helsinki and ethics regulations with Institutional Review Board approval from Brigham and Women's Hospital (P001526). […] Citrated whole blood underwent centrifugation with a slow break (177×g, 20 minutes) and the PRP fraction was acquired for subsequent experiments. For washed platelets, PRP was incubated with 1 μM prostaglandin E1 (Sigma, P5515) and immediately underwent centrifugation with a slow break (1000×g, 5 minutes). Platelet-poor plasma was aspirated, and pellets resuspended in platelet resuspension buffer (PRB; 10 mM Hepes, 140 mM NaCl, 3 mM KCl, 0.5 mM MgCl2, 5 mM NaHCO3, 10 mM glucose, pH 7.4).
Washed platelets were pre-treated with RA for 1 hour, followed by agonist stimulation for 10 minutes. Platelets were lysed on ice with RIPA Lysis Buffer System® (Santa Cruz®, sc-24948) and sample supernatants clarified via centrifugation (14,000 rpm, 5 min, 4° C.). […]
On the technique in general: Immunoblotting shows a protein as a band on a membrane.

Regarding `O=C(/C=C/c1ccc(O)c(O)c1)O[C@H](Cc1ccc(O)c(O)c1)C(=O)O` [rosmarinic acid], in test [1], the collagen-mediated platelet aggregation entry is recorded as “inhibits”. Also, the total tyrosine phosphorylation result in test [2] was “dose-dependent reduction”.
